Read-outs that look alike come from different tables or passages of the source.
Assays:
[1] = tested on: Bacillus atrophaeus and Bacillus stearothermophilus; experiment: Reduction in viable cell count after 5 min exposure to sterilant and/or ultrasound; format: cell-based
Description: Comparative testing with exposure for 5 min to ultrasound at 250 kHz, 500 kHz and 1 MHz and using ultrasound and sterilant in separation as well as in combination was conducted and the reduction in viable cell count was determined using standard methodology.

[2] = tested on: Bacillus atrophaeus and Bacillus stearothermophilus; experiment: Growth of surviving bacteria colonies after exposure; format: cell-based; settings: 500 kHz test; observed at 24, 48 and 96 hours (FIGS. 8 and 9)
Description: In the parallel tests with hydrogen peroxide and ultrasound, the effect was much less significant (see FIG. 10) than with the test series using ultrasound and ozone. The effect seems to be more evident with ozone than with hydrogen peroxide. […] At the very least their reproductive system appears to have been severely compromised.

[3] = 500 kHz test series, cells suspended in distilled water, ozone 3.7 ppm, hydrogen peroxide 1.5% w/w, glutaraldehyde 0.2%, control normalized 100%

Structure (SMILES) | Percentage reduction in number of viable cells upon a 5 minute exposure [1, 3] [%] | inhibition at 1.5 % strength ([1]; 1 MHz test series, cells suspended in distilled water, ozone 3.7 ppm, hydrogen peroxide 1.5% w/w, control normalized 100%, read-out: Percentage reduction in number of viable cells upon a 5 minute exposure) [%] | inhibition at 1.5 % strength ([1]; read-out: Percentage reduction in number of viable cells upon a 5 minute exposure, 500 kHz test series, cells suspended in distilled water, ozone 3.7 ppm, hydrogen peroxide 1.5% w/w, glutaraldehyde 0.2%, control normalized 100%) [%] | Percentage reduction in number of viable cells upon a 5 minute exposure ([1]; 1 MHz test series, cells suspended in distilled water, ozone 3.7 ppm, hydrogen peroxide 1.5% w/w, control normalized 100%) [%] | growth of surviving bacteria colonies after exposure [2]
O=CCCCC=O [Glutaraldehyde, glutaraldehdye] | 86 |  |  |  | 
OO [Hydrogen Peroxide, hydrogen peroxide] |  | 68 | 59 |  | 
O=[O+][O-] [Ozone] | 81 |  |  | 71 | bacteria colonies were visible after 24 hours

From US20150314021A1, “STERILIZATION METHOD COMPRISING STERILIZATION FLUID AND ULTRASONICALLY GERERATED CAVITATION MICROBUBBLES” (DEVIS TECHNOLOGIES INC., priority 2012, published 2015)
